Experimental data as given in patent US5273903A, “Biotechnological process for the production of S-(+)-2,2-dimethylcyclopropanecarboxamide” (Lonza Ltd., priority 1991, dated 1993).
Several values for one entry are separate records, joined by “and”; a condition that tells them apart may be missing. Identical values can stand only once.

Experiments:
[1] = system: R-(-)-2,2-DMCPCA-hydrolase; test: Determination of activity of R-(-)-2,2-DMCPCA-hydrolase, microorganism suspension; type: cell-based, Comamonas acidovorans A:18 (DSM No. 6315); conditions: phosphate buffer 10 mmol pH 7.0, 0.2 percent by weight substrate, 3 hours
Method: To determine the activity of the hydrolase, the microorganism suspension was adjusted to an optical density of 0.5 at 650 nm. As a medium, a phosphate buffer (10 mmol), pH 7.0, with 0.2 percent by weight of R,S-2,2-DMCPCA, was used. […] The NH4^+ released by the hydrolase or the R-(-)-2,2-DMCPCS was measured and the activity reacted as g of R-(-)-2,2-DMCPCA was expressed /1/h/ optical density at 650 nm, provided that 1 mmol of formed NH4^+ equals 1 mmol of reacted R-(-)-2,2-DMCPCA.

[2] = system: R-(-)-2,2-DMCPCA-hydrolase; test: Hydrolase activity during biotransformation with whole cells; type: cell-based, Bacterium sp. VIII:II (DSM No. 6316); conditions: 0.2 percent by weight substrate; otherwise conditions of Example 3
Method: (§1) To determine the activity of the hydrolase, the microorganism suspension was adjusted to an optical density of 0.5 at 650 nm. As a medium, a phosphate buffer (10 mmol), pH 7.0, with 0.2 percent by weight of R,S-2,2-DMCPCA, was used. This suspension was incubated for 3 hours at 30° C. with shaking. The NH4^+ released by the hydrolase or the R-(-)-2,2-DMCPCS was measured and the activity reacted as g of R-(-)-2,2-DMCPCA was expressed /1/h/ optical density at 650 nm, provided that 1 mmol of formed NH4^+ equals 1 mmol of reacted R-(-)-2,2-DMCPCA.
(§2) Comamonas acidovorans A:18 was incubated on mineral salt medium-agar plates with glycerin as a C-source and ammonium sulfate as an N-source for 2 days at 30° C. With these plated-out microorganisms, an initial culture medium with the same composition was inoculated and incubated for 2 days at 30° C. […] After an incubation of about 25 hours at 37° C., R-(-)-2,2-DMCPCA was completely reacted to R-(-)-2,2-DMCPCS, which corresponded to an optical purity (ee) of 100 percent and an analytically measured yield in S-(+)-2,2-DMCPCA of 46.7 percent. […]
In contrast to Example 3, the biotransformation in this microorganism was performed with 0.2 percent by weight of R,S-(±)-2,2-DMCPCA, and the activity of the hydrolase was determined as 0.13 g/1/h/OD650nm.

[3] = system: R-(-)-2,2-DMCPCA-hydrolase; test: as above; type: cell-based, Pseudomonas sp. NSAK:42 (DSM No. 6433); conditions: 0.2 percent by weight substrate; otherwise conditions of Example 3
Method: as §1, §2
Analogously to Example 1, Pseudomonas sp. […] The biotransformation was performed with 0.2 percent by weight of R,S-(±)-2,2-DMCPCA, and the activity of the hydrolase was determined as 0.34 g/1/h/OD650nm.

[4] = system: immobilized biocatalyst (polyethylene imine/glutaraldehyde treated cells); test: Activity of immobilized cells (immobilized biocatalyst); type: cell-based, Comamonas acidovorans A:18; conditions: cells immobilized by polyethylene imine/glutaraldehyde treatment
Method: After induction (corresponding to Example 3), the cells of Comamonas acidovorans A:18, were harvested. These cells were immobilized by a polyethylene imine/glutaraldehyde treatment (corresponding to Czechoslovakian Patent No. 251,111). […] The dry weight of the biocatalyst corresponded to 32 percent of the moist weight. Then, the biocatalyst (with 55 g moist weight) was suspended in 800 ml of boric acid (10 mM, pH 9.0) with 16 g of R,S-(±)-2,2-DMCPCA. After an incubation time of 68.8 hours at 37 C and at a stirring speed of 200 rpm, R-(-)-2,2-DMCPCA was completely reacted to R-(-)-2,2-DMCPCS, which corresponded to an optical purity (ee) of 98.2 percent and an analytically measured yield in S-(+)-2,2-DMCPCA of 40 percent.

[5] = system: cell-free enzyme extract (R-(-)-2,2-DMCPCA-hydrolase); test: Activity of cell-free enzyme extract; type: biochemical, Comamonas acidovorans A:18; conditions: 30 °C; phosphate buffer 10 mM pH 7.0; 0.2 percent by weight R,S-(±)-2,2-DMCPCA; about 0.8 mg of protein
Method: After induction, the cells of Comamonas acidovorans A:18 were concentrated to an optical density at 650 nm from 210 to 95 ml in the HEPES buffer (10 mM, pH 7.0). Then, the cells were broken down twice in the French press at a pressure of 1200 bars. To obtain a cell-free enzyme extract, all of this material was then centrifuged at 20,000 rpm for 20 minutes. In this cell-free enzyme extract, the amount of protein (measured according to the Bradford method) was then determined as 39.3 mg of protein/ml. To determine the activity of these cell-free enzymes, 20 microliters (about 0.8 mg of protein) of this cell-free enzyme extract was taken up in 4 ml of phosphate buffer (10 mM, pH 7.0), containing 0.2 percent by weight of R,S-(±)-2,2-DMCPCA and incubated at 30° C. Here, 2.5 g of R-(-)-2,2-DMCPCA/h/g of protein (3.64 micromol/min/g of protein) was converted to the corresponding acid.

SMILES | hydrolase Activity ([1]; 25 °C) | hydrolase Activity ([1]; 30 °C) | hydrolase Activity ([1]; 37 °C) | hydrolase Activity ([1]; 45 °C) | hydrolase Activity ([1]; 48 °C) | hydrolase Activity ([1]; 55 °C) | hydrolase Activity ([1]; 65 °C) | activity of the hydrolase [2] | activity of the hydrolase [3] | activity of the immobilized biocatalyst [4] | converted to the corresponding acid [5]
CC1(C)CC1C(N)=O (racemic) [R,S-(±)-2,2-DMCPCA, R,S-(±)-2,2-dimethylcyclopropanecarboxamide] | 0.25 g/l/h/OD650 | 0.5 g/l/h/OD650 | 1.0 g/l/h/OD650 | 1.5 g/l/h/OD650 | 1.8 g/l/h/OD650 | 1.9 g/l/h/OD650 | 0 g/l/h/OD650 | 0.13 g/1/h/OD650nm | 0.34 g/1/h/OD650nm | 1.6 micromol/min g of dry weight | –
CC1(C)C[C@H]1C(N)=O [R-(-)-2,2-DMCPCA, R-(-)-2,2-dimethylcyclopropanecarboxamide] | – | – | – | – | – | – | – | – | – | – | 2.5 g/h/g of protein and 3.64 micromol/min/g of protein
